Results from PubChem BioAssay (NCI).
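In this assay, cells in 96-well plates receive the compound at five concentrations for 48 hours. Endpoints are linearly interpolated between the surrounding concentrations. GI50 = concentration required for 50% inhibition of growth. TGI is the concentration that stops growth completely.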

Assays:
Experiment in all cases: NCI tumour cell line growth inhibition, 48 h
[1] = tested on: 786-0 renal
[2] = tested on: A498 renal
[3] = tested on: A549 NSCLC
[4] = tested on: ACHN renal
[5] = tested on: BT-549 breast
[6] = tested on: CAKI-1 renal
[7] = tested on: CCRF-CEM leukemia
[8] = tested on: COLO 205 colon
[9] = tested on: DU-145 prostate
[10] = tested on: EKVX NSCLC
[11] = tested on: HCC-2998 colon
[12] = tested on: HCT-116 colon
[13] = tested on: HCT-15 colon
[14] = tested on: HL-60(TB) leukemia
[15] = tested on: HOP-62 NSCLC
[16] = tested on: HOP-92 NSCLC
[17] = tested on: HS 578T breast
[18] = tested on: HT29 colon
[19] = tested on: IGROV1 ovarian
[20] = tested on: K-562 leukemia
[21] = tested on: KM12 colon
[22] = tested on: LOX IMVI melanoma
[23] = tested on: M14 melanoma
[24] = tested on: MALME-3M melanoma
[25] = tested on: MCF7 breast
[26] = tested on: MDA-MB-231 breast
[27] = tested on: MDA-MB-435
[28] = tested on: MDA-N
[29] = tested on: MOLT-4 leukemia
[30] = tested on: NCI-H226 lung
[31] = tested on: NCI-H23 lung
[32] = tested on: NCI-H460 lung
[33] = tested on: NCI-H522 lung
[34] = tested on: NCI/ADR-RES ovarian
[35] = tested on: OVCAR-3 ovarian
[36] = tested on: OVCAR-4 ovarian
[37] = tested on: OVCAR-5 ovarian
[38] = tested on: OVCAR-8 ovarian
[39] = tested on: PC-3 prostate
[40] = tested on: RPMI-8226 leukemia
[41] = tested on: RXF 393 renal
[42] = tested on: SF-268 CNS
[43] = tested on: SF-295 CNS
[44] = tested on: SF-539 CNS
[45] = tested on: SK-MEL-2 melanoma
[46] = tested on: SK-MEL-28 melanoma
[47] = tested on: SK-MEL-5 melanoma
[48] = tested on: SK-OV-3 ovarian
[49] = tested on: SN12C renal
[50] = tested on: SNB-19 CNS
[51] = tested on: SNB-75 CNS
[52] = tested on: SR leukemia
[53] = tested on: SW-620 colon
[54] = tested on: T-47D breast
[55] = tested on: TK-10 renal
[56] = tested on: U251 CNS
[57] = tested on: UACC-257 melanoma
[58] = tested on: UACC-62 melanoma
[59] = tested on: UO-31 renal

Q: How did the TGI [1] turn out when `O=C1C(N2CCOCC2)=C(Cl)C(=O)c2ncccc21` was run?
A: 3.24 µM

Q: What about the TGI [2] of the same compound?
A: > 10 µM

Q: What about the TGI [3] of the same compound?
A: > 10 µM

Q: And the TGI [4]?
A: 3.49 µM

Q: And the TGI [5]?
A: > 10 µM

Q: What about the TGI [6] of the same compound?
A: > 10 µM

Q: What about the TGI [7] of the same compound?
A: 2.16 µM

Q: What about the TGI [8] of the same compound?
A: 3.91 µM

Q: And the TGI [9]?
A: > 10 µM

Q: What about the TGI [10] of the same compound?
A: > 10 µM

Q: And the TGI [11]?
A: > 9.5 µM

Q: And the TGI [12]?
A: 3.1 µM

Q: What about the TGI [13] of the same compound?
A: 4.11 µM

Q: What about the TGI [14] of the same compound?
A: 0.534 µM

Q: And the TGI [15]?
A: > 10 µM

Q: And the TGI [16]?
A: 2.84 µM

Q: What about the TGI [17] of the same compound?
A: > 10 µM

Q: And the TGI [18]?
A: > 10 µM

Q: What about the TGI [19] of the same compound?
A: > 10 µM

Q: What about the TGI [20] of the same compound?
A: 5.03 µM

Q: And the TGI [21]?
A: > 5.35 µM

Q: And the TGI [22]?
A: 4.92 µM

Q: And the TGI [23]?
A: 4.97 µM

Q: What about the TGI [24] of the same compound?
A: 3.45 µM

Q: What about the TGI [25] of the same compound?
A: 3.59 µM

Q: And the TGI [26]?
A: 5.24 µM

Q: And the TGI [27]?
A: 3.22 µM

Q: And the TGI [28]?
A: 3.48 µM

Q: And the TGI [29]?
A: 3.19 µM

Q: What about the TGI [30] of the same compound?
A: > 10 µM

Q: And the TGI [31]?
A: 3.55 µM

Q: What about the TGI [32] of the same compound?
A: > 10 µM

Q: What about the TGI [33] of the same compound?
A: 2.85 µM

Q: What about the TGI [34] of the same compound?
A: > 10 µM

Q: And the TGI [35]?
A: 3.39 µM

Q: What about the TGI [36] of the same compound?
A: 2.89 µM

Q: What about the TGI [37] of the same compound?
A: > 10 µM

Q: What about the TGI [38] of the same compound?
A: > 5.73 µM

Q: What about the TGI [39] of the same compound?
A: > 10 µM

Q: What about the TGI [40] of the same compound?
A: 4.34 µM

Q: And the TGI [41]?
A: 2.91 µM

Q: And the TGI [42]?
A: > 7.37 µM

Q: What about the TGI [43] of the same compound?
A: > 10 µM

Q: What about the TGI [44] of the same compound?
A: > 10 µM

Q: What about the TGI [45] of the same compound?
A: 3.77 µM

Q: And the TGI [46]?
A: 4.67 µM

Q: And the TGI [47]?
A: 3.26 µM

Q: What about the TGI [48] of the same compound?
A: > 10 µM

Q: What about the TGI [49] of the same compound?
A: 3.15 µM

Q: What about the TGI [50] of the same compound?
A: > 10 µM

Q: And the TGI [51]?
A: > 10 µM

Q: What about the TGI [52] of the same compound?
A: 2.2 µM

Q: And the TGI [53]?
A: 3.72 µM

Q: And the TGI [54]?
A: 3.92 µM

Q: And the TGI [55]?
A: 4.71 µM

Q: What about the TGI [56] of the same compound?
A: > 10 µM

Q: What about the TGI [57] of the same compound?
A: 3.52 µM

Q: And the TGI [58]?
A: 5.51 µM

Q: What about the TGI [59] of the same compound?
A: > 5.86 µM

Q: What does the source list for `N#C/C(=C/NC(=S)NCc1ccccc1)C(N)=O`?
A: TGI [1]: > 100 µM; TGI [2]: > 100 µM; TGI [3]: > 100 µM; TGI [4]: > 100 µM; GI50 [5]: > 100 µM; TGI [5]: > 100 µM; TGI [6]: > 100 µM; TGI [7]: > 100 µM; TGI [8]: > 100 µM; TGI [9]: > 100 µM; TGI [10]: > 100 µM; TGI [11]: > 100 µM; TGI [12]: > 100 µM; TGI [13]: > 100 µM; TGI [14]: > 100 µM; TGI [15]: > 100 µM; TGI [16]: > 100 µM; TGI [17]: > 100 µM; TGI [18]: > 100 µM; TGI [19]: > 100 µM; TGI [20]: > 100 µM; TGI [21]: > 100 µM; TGI [22]: > 100 µM; TGI [23]: > 100 µM; TGI [24]: > 100 µM; TGI [25]: > 100 µM; TGI [26]: > 100 µM; TGI [27]: > 100 µM; TGI [28]: > 100 µM; TGI [29]: > 100 µM; TGI [30]: > 100 µM; TGI [31]: > 100 µM; TGI [32]: > 100 µM; TGI [33]: > 100 µM; TGI [34]: > 100 µM; TGI [35]: > 86.1 µM; TGI [36]: > 100 µM; TGI [37]: > 100 µM; TGI [38]: > 100 µM; TGI [39]: > 100 µM; TGI [40]: > 100 µM; TGI [41]: > 100 µM; TGI [42]: > 100 µM; TGI [43]: > 100 µM; TGI [44]: > 100 µM; TGI [45]: > 100 µM; TGI [46]: > 100 µM; TGI [47]: > 100 µM; TGI [48]: > 100 µM; TGI [49]: > 100 µM; TGI [50]: > 100 µM; TGI [51]: > 100 µM; TGI [52]: > 100 µM; TGI [53]: > 100 µM; TGI [54]: > 100 µM; GI50 [55]: > 100 µM; TGI [55]: > 100 µM; TGI [56]: > 100 µM; TGI [57]: > 100 µM; TGI [58]: > 100 µM; TGI [59]: > 100 µM
